The values that follow come from EP4725957A1, “GROUP OF CYCLIC ALKALINE LIPOPEPTIDE COMPOUNDS, AND PREPARATION METHOD THEREFOR AND USE THEREOF” (Institute of Medicinal Biotechnology, Chinese Academy of …, priority 2023, dated 2024).

Each structure is given as a SMILES string. ≈ marks a conversion by molar mass, not a printed value. Bridge positions count the residues as written; N and C are the ends. Square brackets hold non-standard residues; d marks the D form. Peptide text beside a SMILES is read from it. * marks the point of attachment. Heptanoyl(6-Me) = CC(C)CCCCC(=O)*; dOrn = NCCC[C@@H](N)C(=O)O; X1 = CC[C@H](C)CCCCC(=O)*; Heptanoyl = CCCCCCC(=O)*; Octanoyl = CCCCCCCC(=O)*; Dab = NCC[C@H](N)C(=O)O

Format in all cases: cell-based
The test system of series [1] is Klebsiella pneumoniae KPN+19-15. To be noted: KPN+19-15. The essentials:
(§1)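 In this CLSI-based assay, serially halved compound (final 64–0.03 mg/L) was exposed to (2-4) × 10^5 CFU/mL bacteria in MH broth at 35-37°C for 16-20 h. The readout was the MIC.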

In series [2] the test system is Acinetobacter baumannii NCTC 13304 (OXA-27). Particulars: NCTC 13304. The essentials: as §1
The subject of series [3] is Escherichia coli ATCC BAA-2523. Particulars: ATCC BAA-2523. The essentials: as §1
The subject of series [4] is Pseudomonas aeruginosa PAE19-3. To be noted: PAE19-3. The essentials: as §1
The test system of series [5] is Acinetobacter baumannii ABA19-1. Particulars: ABA19-1. The essentials:
as §1

For series [6], the system named is Escherichia coli ATCC BAA-2340 (KPC). To be noted: ATCC BAA-2340. The essentials: as §1
In series [7] the test system is Pseudomonas aeruginosa ATCC 27853. To be noted: ATCC 27853. The essentials: as §1
The subject of series [8] is Klebsiella pneumoniae ATCC BAA-1705 (KPC). Particulars: ATCC BAA-1705. The essentials:
as §1

Series [9] is described as follows: Nephrotoxicity assay: in vitro cytotoxicity of HK-2 cells by CCK-8 assay. Particulars: human, HK-2 cells (human renal), 72 h incubation with drug-containing medium. The essentials: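 Compounds in sterile water, diluted to final 500, 250, 200, 100, 50, 25 and 12.5 µg/mL, were applied for 72 h to human HK-2 kidney cells. Absorbance at 450 nm after 3 h CCK-8 gave viability against untreated wells, and IC50 came from logarithmic regression; three replicates.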
(Formazan colour is commonly taken as a measure of viable cells.)

As a reminder, the MIC is the smallest concentration in the dilution series that meets the test's criterion for growth inhibition. Lower therefore signals a more susceptible organism. For orientation: IC50 means the concentration at which inhibition is half-maximal. High values mean a need for much substance, low ones inhibition by little substance. As to `CC[C@H](C)CCCCC(=O)N[C@@H](CCN)C(=O)N[C@H](C(=O)N[C@H](CCCN)C(=O)N[C@H]1CCNC(=O)[C@H]([C@@H](C)O)NC(=O)[C@H](CCN)NC(=O)[C@H](CCN)NC(=O)[C@H]([C@@H](C)O)NC(=O)[C@@H](Cc2ccccc2)NC(=O)[C@H](CCN)NC1=O)[C@@H](C)O` [Compound 21, (S)-6-methyloctanoyl-Dab-Thr-D-Orn-ring(4-10)[Dab-Dab-D-Phe-Thr-Dab-Dab-Thr]] (X1-[Dab]T[dOrn][Dab][Dab][dF]T[Dab][Dab]T; lactam 4-C), the minimal inhibitory concentration (MIC) is 0.125 µg/mL (≈ 0.104 µM) in series [1]; 0.06 µg/mL (≈ 0.0498 µM) in series [2]; at most 0.03 µg/mL in [3]; 1 µg/mL (≈ 0.83 µM) in series [4]; 0.125 µg/mL (≈ 0.104 µM) in [5]; at most 0.03 µg/mL in series [6]. Besides, the minimal inhibitory concentration (MIC) in series [7] came out at 0.25 µg/mL (≈ 0.207 µM); in series [8], 0.06 µg/mL (≈ 0.0498 µM). Further, the IC50 at 72 h in [9] is over 500 µg/mL.
Take `CC(C)CCCCC(=O)N[C@@H](CCN)C(=O)N[C@H](C(=O)N[C@H](CCCN)C(=O)N[C@H]1CCNC(=O)[C@H]([C@@H](C)O)NC(=O)[C@H](CCN)NC(=O)[C@H](CCN)NC(=O)[C@H]([C@@H](C)O)NC(=O)[C@@H](Cc2ccccc2)NC(=O)[C@H](CCN)NC1=O)[C@@H](C)O` [Compound 22, 6-methylheptanoyl-Dab-Thr-D-Orn-ring(4-10)[Dab-Dab-D-Phe-Thr-Dab-Dab-Thr]] ({Heptanoyl(6-Me)}-[Dab]T[dOrn][Dab][Dab][dF]T[Dab][Dab]T; lactam 4-C): the MIC in [1] is on record as 0.125 µg/mL (≈ 0.105 µM); in series [2] it was 0.06 µg/mL (≈ 0.0504 µM); in [3], at most 0.03 µg/mL; in [4] it was 1 µg/mL (≈ 0.839 µM); in series [5], 0.125 µg/mL (≈ 0.105 µM); in series [6], at most 0.03 µg/mL. Moreover, the minimal inhibitory concentration (MIC) in [7] was 0.25 µg/mL (≈ 0.21 µM); in [8], 0.06 µg/mL (≈ 0.0504 µM). The compound also registered an IC50 at 72 h in series [9] of over 500 µg/mL.
Regarding `CCCCCCCC(=O)N[C@@H](CCN)C(=O)N[C@H](C(=O)N[C@H](CCCN)C(=O)N[C@H]1CCNC(=O)[C@H]([C@@H](C)O)NC(=O)[C@H](CCN)NC(=O)[C@H](CCN)NC(=O)[C@H]([C@@H](C)O)NC(=O)[C@@H](Cc2ccccc2)NC(=O)[C@H](CCN)NC1=O)[C@@H](C)O` [Compound 23, Octanoyl-Dab-Thr-D-Orn-ring(4-10)[Dab-Dab-D-Phe-Thr-Dab-Dab-Thr]] (Octanoyl-[Dab]T[dOrn][Dab][Dab][dF]T[Dab][Dab]T; lactam 4-C), the minimal inhibitory concentration (MIC) was 0.125 µg/mL (≈ 0.105 µM) in [1]; 0.06 µg/mL (≈ 0.0504 µM) in series [2]; at most 0.03 µg/mL in [3]; 1 µg/mL (≈ 0.839 µM) in [4]; 0.125 µg/mL (≈ 0.105 µM) in [5]; at most 0.03 µg/mL in [6]. Besides, the MIC in [7] stood at 0.25 µg/mL (≈ 0.21 µM); in series [8] it was 0.06 µg/mL (≈ 0.0504 µM). In addition, the IC50 at 72 h in [9] is over 500 µg/mL.
Consider `CCCCCCC(=O)N[C@@H](CCN)C(=O)N[C@H](C(=O)N[C@H](CCCN)C(=O)N[C@H]1CCNC(=O)[C@H]([C@@H](C)O)NC(=O)[C@H](CCN)NC(=O)[C@H](CCN)NC(=O)[C@H]([C@@H](C)O)NC(=O)[C@@H](Cc2ccccc2)NC(=O)[C@H](CCN)NC1=O)[C@@H](C)O` [Compound 24, Heptanoyl-Dab-Thr-D-Orn-ring(4-10)[Dab-Dab-D-Phe-Thr-Dab-Dab-Thr]] (Heptanoyl-[Dab]T[dOrn][Dab][Dab][dF]T[Dab][Dab]T; lactam 4-C), for which the MIC in [1] was 0.125 µg/mL (≈ 0.106 µM); in [2] it was 0.06 µg/mL (≈ 0.051 µM); in series [3] it was at most 0.03 µg/mL; in series [4] it was 2 µg/mL (≈ 1.7 µM); in series [5], 0.125 µg/mL (≈ 0.106 µM); in series [6] it was at most 0.03 µg/mL. Besides, the MIC in series [7] is given as 0.5 µg/mL (≈ 0.425 µM); in series [8] it was 0.06 µg/mL (≈ 0.051 µM). The 50% inhibitory concentration (IC50) at 72 h in series [9] was over 500 µg/mL.
